Experimental data as given in patent publication US12383579B2, “Materials and methods of using an inhibitor of plasminogen activation to treat anastomotic leak” (THE UNIVERSITY OF CHICAGO, priority 2018, dated 2025).
Where “and” joins values, the source holds several entries; their conditions need not be identical. Identical values can stand only once.

How the values were obtained:
[1] = tested on: E. faecalis E44-induced AL; assay: Mouse model of E44-induced anastomotic leak; type: in vivo, C57BL/6 mice
Protocol: The role of activated plasminogen (PLG) in anastomotic leak. […] Co-incubation of E44 with murine macrophages ([…]) was performed for studies involving conditioned media. Twenty-week-old male C57BL/6 mice underwent the validated model of E44-induced AL that includes preoperative antibiotics to defaunate the colon, surgical transection and anastomosis of the colon and introduction of E44 in 10% glycerol to the surgical site via rectal enema on postoperative day 1. […] Anastomotic healing was assessed blindly using a validated anastomotic healing score (AHS): 0=uncomplicated healing, 1=flimsy adhesions, 2=dense adhesions, 3=abscess, and 4=gross anastomotic disruption. AL was defined as AHS 3 or above.

[2] = target: PLG with uPA and pro-MMP9 (Homo sapiens, UniProt P00747); assay: Collagen/gelatin degradation by PLG, uPA and pro-MMP9 in a sterile system; type: biochemical
Protocol: (§1) Collagen degradation. Assays were performed per the manufacturer's instructions as previously described with slight modifications (51′). Bacteria were grown overnight in TY. Optical density was normalized to 0.1 through dilution. Bacteria were then incubated with fluorescein-labeled type I collagen, type IV collagen, or gelatin according to the manufacturer's instructions (ThermoFisher), human PLG at 250 nM and TXA. Total reaction volume was 200 L. The incubation proceeded at 37° C. for 5 hours to allow for bacterial attachment to collagen and PLG binding. uPA was added and the incubation proceeded for an additional hour. Change in fluorescence over time at 480/520 nm was determined kinetically over the initial 30 minutes of the reaction.

[3] = tested on: polymicrobial communities cultured from the postoperative mouse colon; assay: Plasmin activity assay of polymicrobial communities from postoperative mouse colon; type: biochemical; settings: 10 mM TXA, exogenous PLG and uPA
Protocol: Polymicrobial communities collected from homogenized tissue and luminal contents were cultured aerobically in nonspecific media and underwent plasmin activity assays in the presence of human PLG and uPA. […] (*p<0.05, ANCOVA). Error bars indicate means±SD. All data are representative of three separate experiments, each run in triplicate.
Plasminogen/uPA activity. Plasmin activity assays were performed as previously described with minor modifications, and fluorescence data was analyzed per the manufacturer's instructions (50′). Incubation times were optimized for bacteria at low optical density to limit internal filter effects in fluorescence-based assays. Bacteria (when included) were grown overnight in TY media. […] A final concentration of 6 M fluorogenic substrate specific for plasmin (H-D-Val-Leu-Lys-AFC, AnaSpec) was added immediately prior to a kinetic fluorescent read with excitation wavelength 380 nm and emission wavelength 500 nm. Reads were conducted every 15 to 30 seconds over the course of 30 minutes. […] When assays were performed in human plasma, fluorescence was read for 120 minutes total.
Plasmin activity assays were measured in polymicrobial communities cultured aerobically from homogenized luminal contents or tissue following anastomotic surgery without antibiotics and without introduction of a leak-inducing pathogen (e.g., E. faecalis, P. aeruginosa, S. marcescens). […]

[4] = tested on: E. faecalis V583 and FITC-PLG at the anastomotic site; assay: Co-localization of E. faecalis and PLG at the anastomotic site; type: in vivo, mice; settings: TXA enema POD 1, 2, 3; POD3
Description: Co-localization of E. faecalis and PLG: Mice underwent anastomotic surgery with postoperative introduction of E. faecalis V583. The mice received post-operative TXA or vehicle enemas as described herein. They received a systemic (intra-peritoneal) injection of 100 L 4 M FITC-labeled PLG one hour prior to sacrifice. Anastomotic tissue was collected in sterile fashion and cryosectioned. Slides were stained with 4′,6-diamidino-2-phenylindole (DAPI) for colonic mucosa. For visualization of microbial organisms, the inventors used probes designed by Miacom Diagnostics, which use a fluorescence in situ hybridization (FISH) beacon-based technology. An E. faecalis-specific probe was labeled with Alexa Fluor 647. Staining was performed overnight per the manufacturer's protocol. Confocal microscopy was performed on a Leica SP5 II AOBS tandem scanner spectral confocal system on a DMI6000 microscope and controlled by LASAF software (version 2.8.3). […] channels were collected at each location using sequential excitation (excitation: 405, 488, and 633; emission: 412-452, 495-537, and 654-755 nm pass bands) on either photomultiplier or HyD hybrid detectors. […]
Co-localization of E. faecalis and plasminogen at the anastomotic site. […] Mice undergoing E. faecalis-mediated anastomotic leak were administered FITC-labeled PLG (as observed by green fluorescence) systemically. […]

[5] = tested on: RAW macrophages; assay: PLG activation by RAW macrophages stimulated with E44 conditioned media; type: cell-based, murine; settings: TXA 10 mM, PLG 250 nm, 4 hours
Protocol: (A), E. faecalis E44 was grown in TY media overnight, and cell-free conditioned media (E44s) was applied to RAW macrophages for 4 hours. PLG, 250 nm, was included in the reaction. TXA, 10 mM, was added when needed. PLG activation was measured by fluorogenic substrate cleavage. “RAW” column is naïve RAW. *p<0.05, n=6/group. (B), Conditioned media after co-interaction of macrophages with E. faecalis E44 (named RAW/E44s) was applied to naïve RAW macrophages for 4 hours. PLG, 250 nm, and MMP9, 1 nM, were in all reactions. TXA, 10 mM, was added when needed. “RAW+RAWs” column is naïve macrophages incubated with conditioned media of RAW macrophages (no E. faecalis E44). *p<0.05, n=6/group.
RAW 264.7 or J774 murine macrophages were incubated at 37° C. and 5% CO2 in Dulbecco's modified eagle media (DMEM) with 10% fetal bovine serum, penicillin/streptomycin and antifungals during growth. For plasmin activity assays, cells were plated at 10^4 cells/well on a 96-well plate in phenol-free DMEM with 1% FBS. Added bacteria were in low volumes of TY.
RAW 267.4 murine macrophages are co-incubated with E44, reasoning that bacteria and macrophages regularly co-interact in healing gut tissue. […] To confirm the expectation, naïve macrophages were stimulated with conditioned media from E44 overnight culture.

[6] = target: PLG activation by E. faecalis V583 (Homo sapiens, UniProt P00747); type: biochemical
Protocol: Plasminogen/uPA activity. Plasmin activity assays were performed as previously described with minor modifications, and fluorescence data was analyzed per the manufacturer's instructions (50′). Incubation times were optimized for bacteria at low optical density to limit internal filter effects in fluorescence-based assays. Bacteria (when included) were grown overnight in TY media. OD600 was normalized by dilution to 0.1, equivalent to 8×10^7 CFU/mL. Samples at OD 0.1 were diluted 1:10 in the final reaction through the addition of media and dissolved substrates. Bacteria were incubated with 250 nM human glu-plasminogen (Haematologic technologies) for two hours at 37° C. TXA (Fisher) was added concomitantly with PLG. […] A final concentration of 6 M fluorogenic substrate specific for plasmin (H-D-Val-Leu-Lys-AFC, AnaSpec) was added immediately prior to a kinetic fluorescent read with excitation wavelength 380 nm and emission wavelength 500 nm. Reads were conducted every 15 to 30 seconds over the course of 30 minutes. […] When assays were performed in human plasma, fluorescence was read for 120 minutes total.
Plasmin or uPA activity is expressed as initial reaction velocity calculated from change in fluorescence over time during the initial phase of the reaction, when pseudo-first order kinetics determine the rate due to high substrate concentrations where a linear rise in fluorescence is observed. […]

[7] = tested on: E. faecalis; assay: Intrinsic bacterial type IV collagen degradation in the absence of PLG; type: biochemical, Enterococcus faecalis
Protocol: as §1

[8] = tested on: P. aeruginosa-induced anastomotic leak; assay: Mouse model of P. aeruginosa-induced anastomotic leak; type: in vivo, mice
Protocol: Mouse model of AL. The experiments disclosed herein used the validated model of pathogen-mediated AL in mice (8′). Ten- to 12-week-old C57BL/6 mice (Charles River) were provided standard chow and tap water ad libidum at all times. When indicated, mice received oral clindamycin (100 mg/kg gavage) and subcutaneous cefoxitin (40 mg/kg) the day prior to, and the day of, surgery. Mice underwent general anesthesia with intraperitoneal ketamine and xylocaine and laparotomy followed by transection of the colon at the colo-rectal junction followed by a primary anastomosis created with interrupted 8-0 prolene suture prior to abdominal closure with 4-0 vicryl suture in two layers. Rectal enemas containing pathogen, either E. faecalis or P. aeruginosa at an OD600 of 0.1 in 10% glycerol, were administered in 100 L enemas. E. faecalis was introduced on POD 1, 2, and 3, while P. aeruginosa was introduced only on POD 1. […] Rectal delivery with a gavage needle ensured local administration of pathogen and study drugs to the surgical site. Rules for stopping the experiment were enacted if mice appeared moribund or in any distress whereby they were sacrificed immediately. There were three deaths prior to planned sacrifice, all determined secondary to feculent peritonitis due to AL. Both the surgeon and the investigator performing analysis of healing were blind to the treatment group. […]

Sequence of PLG activation by E. faecalis V583 (P00747 20-810): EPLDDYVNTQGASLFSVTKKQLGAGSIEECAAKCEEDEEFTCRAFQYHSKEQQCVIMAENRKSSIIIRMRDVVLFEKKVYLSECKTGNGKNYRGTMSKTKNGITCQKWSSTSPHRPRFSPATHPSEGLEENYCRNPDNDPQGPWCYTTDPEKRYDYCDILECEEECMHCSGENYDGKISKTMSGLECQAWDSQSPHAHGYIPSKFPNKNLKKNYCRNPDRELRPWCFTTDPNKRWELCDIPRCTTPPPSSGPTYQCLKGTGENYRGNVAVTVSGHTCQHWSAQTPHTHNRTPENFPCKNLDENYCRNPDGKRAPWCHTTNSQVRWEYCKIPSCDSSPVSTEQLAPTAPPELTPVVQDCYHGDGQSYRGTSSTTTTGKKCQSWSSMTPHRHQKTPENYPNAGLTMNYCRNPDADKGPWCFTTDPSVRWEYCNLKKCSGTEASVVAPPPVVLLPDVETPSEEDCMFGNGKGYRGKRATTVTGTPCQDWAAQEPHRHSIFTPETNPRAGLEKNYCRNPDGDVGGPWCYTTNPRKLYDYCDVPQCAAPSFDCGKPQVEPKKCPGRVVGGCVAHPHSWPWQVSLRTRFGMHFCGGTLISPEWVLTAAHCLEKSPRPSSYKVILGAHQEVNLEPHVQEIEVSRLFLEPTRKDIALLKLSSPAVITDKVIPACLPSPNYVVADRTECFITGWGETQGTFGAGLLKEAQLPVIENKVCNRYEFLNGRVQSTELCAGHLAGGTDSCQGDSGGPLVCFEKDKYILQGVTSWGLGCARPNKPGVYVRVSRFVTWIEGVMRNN
Sequence of PLG with uPA and pro-MMP9 (P00747 20-810 limits assumed): as the sequence (P00747 20-810) above

NC[C@H]1CC[C@H](C(=O)O)CC1 [TXA, tranexamic acid]
overall healing (AHS) compared to vehicle control ([1]; TXA 0.75 mg/kg rectal enema POD 1, 2 and 3, POD 8): significantly superior
mean anastomotic healing score (AHS) ([1]; TXA 0.75 mg/kg rectal enema, scored postoperative day 8, vehicle 2.8): 1.4
gelatin / type IV collagen degrading activity of PLG with uPA and pro-MMP9 [2]: inhibited in a concentration-dependent manner
plasmin-activating activity of polymicrobial communities [3]: significantly inhibited
co-localization of V583 with FITC-PLG at the anastomotic site [4]: effectively prevented co-localization
penetration of V583 into the colonic mucosa [4]: diminished penetration of V583 into the colonic mucosa
PLG activation by macrophages stimulated with E44 conditioned media [5]: This effect was inhibited
reduction in PLG activation by E. faecalis ([6]; in vitro, concentrations lower than circulating concentration after PO dosing (FIG. 23)): 20%
PLG activation by V583 in the presence of uPA ([6]; plasmin activity assay, PLG 250 nM, uPA): inhibited PLG activation by V583 in a concentration-dependent manner
intrinsic bacterial type IV collagen degradation activity [7]: no effect
clinical / gross leak ([8]; 5 mice per group, enema POD 1, 2, 3): None of the mice
anastomotic healing score (AHS) ([8]; 100 μL enema POD 1, 2, 3 (50 mM TXA in water or PBS), POD 8, water 3.8±0.4): 1.6±0.5 and 1.6+/−0.6
